# Where two headings read alike, the source gives them in different places.
# Experiments:
# [1] = biological target: T1, hAR subtype A2A in HEK293 cells (Homo sapiens, UniProt P29274); experiment: Functional cAMP assay, A2AAR; format: cell-based; conditions: for Emax at 10 µM: HEK293, stimulation of cAMP production at 10 μM, n=3, read-out: Maximum efficacy A2A (% activation); for A2AAR agonist activity in words: Gs-mediated cAMP production
# T1 construct: expressed in transfected cells
# human A3AR [2] = biological target: T2, human A3AR (Homo sapiens, UniProt P0DMS8); set-up: expressed in transfected cells; method as in Rodriguez et al.3; conditions: ref Rodriguez et al.3; cited from earlier work
# T2 sequence (P0DMS8 1-318): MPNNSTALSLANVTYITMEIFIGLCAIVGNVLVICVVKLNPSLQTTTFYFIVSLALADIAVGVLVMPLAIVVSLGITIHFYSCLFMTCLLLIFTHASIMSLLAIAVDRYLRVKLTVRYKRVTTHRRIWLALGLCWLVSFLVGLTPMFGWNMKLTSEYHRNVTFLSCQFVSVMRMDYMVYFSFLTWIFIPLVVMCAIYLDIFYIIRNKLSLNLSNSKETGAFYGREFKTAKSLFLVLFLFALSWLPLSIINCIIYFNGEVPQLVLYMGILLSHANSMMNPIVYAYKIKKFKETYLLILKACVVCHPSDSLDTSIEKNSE
# human A2AAR [3] = biological target: T3, human A2AAR (Homo sapiens, UniProt P29274); set-up: expressed in transfected cells; conditions: cited from earlier work
# T3 sequence (P29274 whole entry): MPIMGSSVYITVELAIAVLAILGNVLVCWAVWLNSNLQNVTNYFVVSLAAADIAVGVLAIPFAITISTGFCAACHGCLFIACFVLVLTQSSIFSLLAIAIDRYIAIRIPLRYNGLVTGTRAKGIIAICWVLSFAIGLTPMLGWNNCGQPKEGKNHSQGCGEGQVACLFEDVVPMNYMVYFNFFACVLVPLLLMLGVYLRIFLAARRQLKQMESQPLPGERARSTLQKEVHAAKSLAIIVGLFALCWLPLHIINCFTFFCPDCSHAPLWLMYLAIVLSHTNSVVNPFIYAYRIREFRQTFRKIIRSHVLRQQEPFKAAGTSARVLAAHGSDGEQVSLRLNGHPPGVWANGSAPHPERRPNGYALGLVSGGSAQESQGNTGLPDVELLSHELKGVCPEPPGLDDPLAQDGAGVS
# human A2BAR = biological target: T4, human A2BAR (Homo sapiens, UniProt P29275); experiment: Radioligand binding assay, A2BAR; conditions: read-out: % Inhibition at 10µM A2B
# T4 sequence (P29275 1-332): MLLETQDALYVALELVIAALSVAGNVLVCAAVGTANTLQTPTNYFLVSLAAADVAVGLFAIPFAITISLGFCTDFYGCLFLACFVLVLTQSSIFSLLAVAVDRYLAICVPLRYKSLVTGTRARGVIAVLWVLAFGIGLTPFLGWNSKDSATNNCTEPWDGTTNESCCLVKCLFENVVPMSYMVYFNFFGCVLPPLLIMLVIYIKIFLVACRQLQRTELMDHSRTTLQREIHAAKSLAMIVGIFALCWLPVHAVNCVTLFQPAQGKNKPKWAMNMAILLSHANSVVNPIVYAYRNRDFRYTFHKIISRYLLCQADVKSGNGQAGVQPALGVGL
# Description: (§1) using 8-[4-[[[[(2-aminoethyl)amino]carbonyl]methyl]oxy]phenyl]-1,3-dipropylxanthin e (XAC) at 10 µM for A1 and A2A and 100 µM for A2B and A3. Binding parameters were calculated using Prism 8 software (GraphPAD, San Diego, CA, USA). IC50 values obtained from competition curves were converted to Ki values using the Cheng–Prusoff equation23.
# (§2) Data are express ed as mean ± standard error.
# [4] = biological target: T5, hAR subtype A1 in HEK293 cells (Homo sapiens, UniProt P30542); experiment: Functional cAMP assay, A1AR; format: cell-based
# T5 sequence (P30542 1-326): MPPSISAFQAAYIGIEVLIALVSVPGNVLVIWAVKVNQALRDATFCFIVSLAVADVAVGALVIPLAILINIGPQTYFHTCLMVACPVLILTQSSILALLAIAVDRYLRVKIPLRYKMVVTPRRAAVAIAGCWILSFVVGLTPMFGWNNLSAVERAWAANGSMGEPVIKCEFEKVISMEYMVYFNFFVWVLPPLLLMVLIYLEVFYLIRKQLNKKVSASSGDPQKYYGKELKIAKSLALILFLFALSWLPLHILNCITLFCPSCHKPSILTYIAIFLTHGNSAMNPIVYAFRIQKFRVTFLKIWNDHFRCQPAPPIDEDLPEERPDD
# human A1AR = biological target: T6, human A1AR (Homo sapiens, UniProt P30542); experiment: Radioligand binding assay, A1AR
# T6 sequence (P30542 1-326): T5 sequence (P30542 1-326)
# Description: as §1, §2
# [5] = biological target: T7, hAR subtype A3 in HEK293 cells (Homo sapiens, UniProt P0DMS8); experiment: Functional cAMP assay, A3AR; format: cell-based
# T7 construct: expressed in transfected cells
# T7 sequence (P0DMS8 1-318): T2 sequence (P0DMS8 1-318)
# human A3AR [6] = biological target: T2, human A3AR; experiment: Radioligand binding assay, A3AR
# Description: as §1, §2
# [7] = biological target: T8, hAR subtype A2B in HEK293 cells (Homo sapiens, UniProt P29275); experiment: Functional cAMP assay, A2BAR; format: cell-based
# T8 construct: expressed in transfected cells
# T8 sequence (P29275 1-332): T4 sequence (P29275 1-332)
# adenosine deaminase = experiment: A2AAR activity in absence and presence of adenosine deaminase; format: in vitro ADME; conditions: concluded qualitatively from A2AAR activity without and with adenosine deaminase
# Description: For compounds 3 and 4, both binding and functional assays at the A2AAR were carried out (Fig. 2). Experiments were also performed for the A1, A2B, and A3 subtypes (Fig. S1 and Table S1 ^†).
# human A2AAR [8] = biological target: T3, human A2AAR; experiment: Radioligand binding assay, A2AAR; conditions: for A2AAR activity class (Active/Inactive) in Fig. 2: summary of binding and functional data
# Description: as §1, §2
# T1 sequence (P29274 whole entry): as the sequence (P29274 whole entry) above
compound,measurement,setting,value
"Nc1nccc2c1ncn2[C@@H]1O[C@H](CO)[C@@H](O)[C@H]1O [Compound 2, 3-deazaadenosine]",Emax at 10 µM,[1],20 ± 4%
same,% Inhibition at 10µM A3,human A3AR [2],53 ± 11%
same,% Inhibition at 10µM A2A,"human A2AAR [3]; 10 µM, ref Rodriguez et al.3",24 ± 8%
same,A2AAR activity class (Active/Inactive) in Fig. 2,human A2AAR [3]; summary of binding and functional data,Inactive
same,Ki,human A2AAR [3]; very low affinity,39000 nM
Nc1ncc(CO)c2c1ncn2C1OC(CO)C(O)C1O (stereo not drawn) [Compound 4],A2AAR agonist activity in words,[1],full agonist
same,Emax at 10 µM,[1],99 ± 3%
same,EC50,"[1]; cAMP production, HEK293, n=3",732 nM
same,inhibition at 10 µM,human A2BAR,29 ± 7%
same,activation of A1 subtype in words,[4],activated
same,EC50,"[4]; cAMP, HEK293, n=3",180 ± 38 nM
same,Emax,"[4]; cAMP, HEK293, n=3, read-out: Maximum efficacy A1",101 ± 3%
same,Ki,human A1AR,31 ± 4 nM
same,activation of A3 subtype in words,[5],activated
same,EC50,"[5]; cAMP, HEK293, n=3",318 ± 66 nM
same,Emax,"[5]; cAMP, HEK293, n=3, read-out: Maximum efficacy A3",97 ± 4%
same,Ki,human A3AR [6],280 ± 27 nM
same,activation of A2BAR in words,[7],not
same,Emax,"[7]; cAMP, HEK293, n=3, read-out: Maximum efficacy A2B",< 15%
same,resistance to degradation by adenosine deaminase,adenosine deaminase,resistance
same,Ki,human A2AAR [8],103 nM
same,A2AAR activity class (Active/Inactive) in Fig. 2,human A2AAR [8],Active
Cc1cnc(N)c2ncn(C3OC(CO)C(O)C3O)c12 (stereo not drawn) [Compound 3],A2AAR agonist activity in words,[1],inactive
same,Emax at 10 µM,[1],9 ± 1%
same,inhibition at 10 µM,human A2BAR,1 ± 1%
same,inhibition at 10 µM,human A1AR; read-out: % Inhibition at 10µM A1,48 ± 17%
same,inhibition at 10 µM,human A3AR [6]; read-out: % Inhibition at 10µM A3,50 ± 2%
same,% Inhibition at 10µM A2A,"human A2AAR [8]; 10 µM, radioligand binding, n=3",did not show significant displacement
same,inhibition at 10 µM,human A2AAR [8]; read-out: % Inhibition at 10µM A2A,13 ± 1%
same,A2AAR activity class (Active/Inactive) in Fig. 2,human A2AAR [8],Inactive
